From PubChem BioAssay (NCI)
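1) Cells in 96-well plates. 2) Compound, 48 h, 5 concentrations. 3) Linear interpolation between surrounding doses. 4) Unreached endpoint = highest concentration. GI50 = concentration required for 50% inhibition of growth. TGI denotes the concentration required for complete inhibition of growth.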

How the values were obtained:
Experiment in all cases: DTP human tumour cell line panel, 48 h
SN12C renal = test system: SN12C renal
MALME-3M melanoma = test system: MALME-3M melanoma
HCC-2998 colon = test system: HCC-2998 colon
NCI-H522 lung = test system: NCI-H522 lung
NCI-H23 lung = test system: NCI-H23 lung
SF-295 CNS = test system: SF-295 CNS
HOP-62 NSCLC = test system: HOP-62 NSCLC
SW-620 colon = test system: SW-620 colon
HOP-92 NSCLC = test system: HOP-92 NSCLC
SK-OV-3 ovarian = test system: SK-OV-3 ovarian

| SMILES | GI50 (SN12C renal) [µM] | TGI (SN12C renal) [µM] | GI50 (MALME-3M melanoma) [µM] | TGI (MALME-3M melanoma) [µM] | GI50 (HCC-2998 colon) [µM] | TGI (HCC-2998 colon) [µM] | GI50 (NCI-H522 lung) [µM] | TGI (NCI-H522 lung) [µM] | GI50 (NCI-H23 lung) [µM] | TGI (NCI-H23 lung) [µM] | GI50 (SF-295 CNS) [µM] | TGI (SF-295 CNS) [µM] | GI50 (HOP-62 NSCLC) [µM] | TGI (HOP-62 NSCLC) [µM] | GI50 (SW-620 colon) [µM] | TGI (SW-620 colon) [µM] | GI50 (HOP-92 NSCLC) [µM] | TGI (HOP-92 NSCLC) [µM] | GI50 (SK-OV-3 ovarian) [µM] | TGI (SK-OV-3 ovarian) [µM] |
| --- | --- | --- | --- | --- | --- | --- | --- | --- | --- | --- | --- | --- | --- | --- | --- | --- | --- | --- | --- | --- |
| COC(=O)[C@@H](C)C[C@H](Cc1ccccc1)NC(=O)c1cccc([C@@H](C[C@H](C(C)C)N(C)C(=O)[C@@H](NC(=O)[C@H]2CCCCN2C)C(C)C)OC(C)=O)n1 | 0.00266 | > 16.7 | < 0.00167 | > 16.7 | < 0.00167 | > 7.55 | < 0.00167 | 0.00263 | 0.0034 | > 16.7 | < 0.00167 | 0.0142 | 0.00367 | > 16.7 | < 0.00167 | > 16.7 | < 0.00167 | 0.114 | 0.00235 | > 16.7 |
| COc1ccc(C2CC(c3cccc(Nc4ccnc5cc(Cl)ccc45)c3)=NN2c2ccc(Cl)cc2)cc1 (stereo not given) | 13 | > 100 | 22.7 | 59.5 | 3.41 | 15.1 | 4.09 | 23.2 | 17.5 | > 100 | 5.8 | 23.3 | 2.44 | 25.6 | 0.533 | 21.6 | 10.8 | 66.3 | 15 | 99.3 |
| CN1CCN(Cc2ccc(NC(=O)c3cncc(C#Cc4c(N)ncc5ccc(F)cc45)c3)cc2C(F)(F)F)CC1 | 0.937 | 5.3 | 0.166 | 0.743 | 0.653 | 9.66 | 1.75 | 11.5 | 0.574 | 4.58 | 4.37 | 13 | 1.17 | 4.67 | 0.206 | 1.13 | 0.0285 | 0.322 | 5.96 | 13.6 |
| Cn1cnc2nc(Cl)nc(Cl)c21 | 3.37 | 24.1 | 13.6 | 50.3 | 3.85 | 15.6 | 1.17 | 3.26 | 10.4 | 34.2 | 3.57 | > 100 | 2.55 | > 100 | 0.469 | 15.5 | 2.09 | 10.5 | 4.32 | > 100 |
| CC(=O)NC(Cc1ccccc1)C(=S)N1CCCC1 (stereo not given) | – | > 100 | – | > 100 | – | > 100 | – | > 100 | – | > 100 | – | > 100 | – | > 100 | – | > 100 | – | > 100 | – | > 100 |
| C/C(=C1/N=C(c2ccccc2)OC1=O)c1cccs1 | – | > 100 | – | > 100 | – | > 100 | – | > 100 | – | > 100 | – | > 100 | – | > 100 | – | > 100 | – | > 100 | – | > 100 |
| CN(C)CCCn1c2c(c3ccc([N+](=O)[O-])cc3c1=O)C(=O)c1ccccc1-2 | 4.21 | 24.5 | 7.86 | > 100 | 15.3 | 41.7 | 4.2 | > 100 | 4.95 | 24.2 | 8.63 | > 100 | 5.67 | 20.8 | 5.7 | > 100 | 9.78 | > 100 | 28.1 | > 100 |
| CCN(CC)CCC(CNc1c2ccc(Cl)cc2nc2ccc(OC)cc12)c1ccccc1 (stereo not given) | 1.15 | 4.98 | 1.87 | 3.56 | 1.09 | 2.39 | 0.555 | 2.1 | 1.5 | 3.55 | 1.41 | 3.02 | 1.16 | 3.11 | 0.538 | 2.15 | 1.79 | 3.86 | 1.64 | 3.5 |
